20 molecules from patent publication US8785638B2, “Thieno [2, 3-B] pyridine derivatives as viral replication inhibitors” (Katholieke Universiteit Leuven, priority 2009, dated 2014) can be followed below.

Read-outs that look alike come from different tables or passages of the source.

The target of data set [1] is LEDGF/p75-HIV-1 integrase interaction (Human immunodeficiency virus type 1 group M subtype B (isolate HXB2) (HIV-1), UniProt P04585). The data set is described as follows: AlphaScreen assay of LEDGF-integrase interaction inhibition. Type of data set: binding. As for the experimental part: Alphascreen Assay to Measure the LEDGF-Integrase Interaction Inhibitory Activity of Compounds of the Invention
The AlphaScreen assay was performed according to the manufacturer's protocol (Perkin Elmer, Benelux). Reactions were performed in 25 μl final volume in 384-well Optiwell™ microtiter plates (Perkin Elmer). The reaction buffer contained 25 mM Tris-HCl (pH 7.4), 150 mM NaCl, 1 mM MgCl2, 0.01% (v/v) Tween-20 and 0.1% (w/v) bovine serum albumin. His6-tagged integrase (300 nM final concentration) was incubated with the compounds for 30 min at 4° C. The compounds were added at varying concentrations spanning a wide range from 0.1 up to 100 μM. Afterwards 100 nM flag-LEDGF/p75 was added and incubation was prolonged for an additional hour at 4° C. Subsequently 5 μl of Ni-chelate-coated acceptor beads and 5 μl anti-flag donor beads were added to a final concentration of 20 μg/ml of both beads. Proteins and beads were incubated for 1 h at 30° C. in order to allow association to occur. Exposure of the reaction to direct light was omitted as much as possible and the emission of light from the acceptor beads was measured in the EnVision plate reader (Perkin Elmer, Benelux) and analyzed using the EnVision manager software. IN/DNA binding was analyzed in a similar setting using His6-tagged integrase (1 μM final concentration) and an oligodeoxynucleotide mimicking the IN ELISA oligonucleotide substrate (30 nM final concentration). Counterscreens with JPO2 or PogZ, respectively, were essentially performed as described previously.
His6-tagged HIV-1 integrase, 3xflag-tagged LEDGF/p75, MBP-JPO2 and MBP-PogZ were purified for AlphaScreen applications as described previously 23,25,56.
Background: Bead proximity is the source of the signal in Alpha formats.

The test system of data set [2] is HIV-1 (IIIB), HIV-1 (NL4.3). In words: microbe, parasite or virus in culture. Format: cell-based. Particulars: for EC50: Human immunodeficiency virus 1, IIIB, MT4, MT-4 cells, 50% protection against HIV-induced cytopathogenic effect, MTT; for SI: selectivity index, ratio of CC50 to EC50. Here is the method: (§1) A rapid and automated assay procedure was used for the in vitro evaluation of anti-HIV agents. An HTLV-1 transformed T4-cell line MT-4, which was previously shown to be highly susceptible to and permissive for HIV infection, served as the target cell line. Inhibition of the HIV-induced cytopathogenic effect was used as the end point. The viabitlity of both HIV- and mock-infected cells was assessed spectrophotometrically via in situ reduction of 3-(4,5-dimethylthiazol-2-yl)-2,5-diphenyltetrazolium bromide (MTT). The 50% cytotoxic concentration (CC50 in μM or μg/ml) was defined as the concentration of compound that reduced the absorbance of the mock-infected control sample by 50%. The percent protection achieved by the compound in HIV-infected cells was calculated by the following formula:
(§2) [formula] whereby (ODT)HIV is the optical density measured with a given concentration of the test compound in HIV-infected cells; (ODC)HIV is the optical density measured for the control untreated HIV-infected cells; (ODC)MOCK is the optical density measured for the control untreated mock-infected cells; all optical density values were determined at 540 nm. The dose achieving 50% protection according to the above formula was defined as the 50% inhibitory concentration (EC50 in μM or μg/ml). The ratio of CC50 to EC50 was defined as the selectivity index (SI). […] Examples of inhibition of cell proliferation by particular compounds of the invention can be found by looking at the respective CC50 values in the MT-4 cell line. Cells:
(§3) MT-4 cells (Miyoshi et al., 1982) were grown and maintained in RPMI 1640 medium supplemented with 10% heat-inactivated fetal calf serum, 2 mM I-glutamine, 0.1% sodium bicarbonate, and 20 μg of gentamicin per ml. Alternatively, the MT-4 cells may also be grown in RPMI 1640 medium supplemented with 10% FCS and 20 μg/ml of gentamicin (RPMI-complete).
The HIV-1 (IIIB) strain (Popovic et al., 1984) as well as the HIV-1 (NL4.3) strain (Adachi et al., J. Virol. 59, 284-291 (1986)) were used.

A short description of data set [3]: Cytotoxicity in mock-infected MT-4 cells (MTT). Type of data set: cell-based. The settings on record: human, 50% cytotoxic concentration. Here is the method: as §1, §2, §3
Where [4] appears, read: His6-tagged integrase 300 nM, flag-LEDGF/p75 100 nM, read-out: Alphascreen IC50.

Usually IC50 stands for the midpoint of a concentration-inhibition curve. Broadly, the EC50 is the concentration that produces a half-maximal response. Higher therefore signals a less potent agent. By CC50 is commonly meant the concentration at which the toxic effect on the cells reaches its halfway point. High values mean better tolerance by the cells, low ones harm at low concentration. On to `CCCC(C(=O)O)c1c(C)nc2sc3c(c2c1-c1ccc(C(F)(F)F)cc1)CCC3` (stereo not shown) [Cpd 116, 2-[2-Methyl-4-(4-trifluoromethylphenyl)-6,7-dihydro-5H-cyclopenta[4,5]thieno[2,3-b]pyridin-3-yl]pentanoic acid], for which, in data set [1] (setting [4]), the IC50 came out at 0.62 µM. In data set [2], it took 1.21 µM to reach a half-maximal effect (EC50) and the SI worked out at 12. The same molecule yielded a half-maximal cytotoxic concentration (CC50) in data set [3] of 14.7 µM.
As to `Cc1nc2sc3c(c2c(-c2ccc4c5c(ccnc25)CCO4)c1C(OC(C)(C)C)C(=O)O)CCCC3` (stereo not shown) [Cpd 190], the IC50 in data set [1] turned out to be 0.37 µM. For the same molecule, in data set [2], the concentration for a half-maximal effect (EC50) worked out at 0.015 µM and the SI turned out to be 8401. The same molecule displayed a cytotoxic concentration (CC50) in data set [3] of 129 µM.
On to `Cc1ccc(-c2c(C(CC3CC3)C(=O)O)c(C)nc3sc4c(c23)CCCC4)cc1` (stereo not shown) [Cpd 165, 2-[2-Methyl-4-(p-tolyl)-5,6,7,8-tetrahydro[1]benzothieno[2,3-b]pyridin-3-yl]-3-cyclopropylpropanoic acid], for which, in data set [1] (setting [4]), the IC50 was below 1 µM. Besides, in data set [2], a half-maximal effect (EC50) was put at 0.867 µM and the SI worked out at 102. For the same molecule, in data set [3], the cytotoxic concentration (CC50) worked out at 89 µM.
The matching figures for `Cc1ccc(-c2c(C(OC(C)(C)C)C(=O)O)c(C)nc3sc4c(c23)CCCC4)cc1` (stereo not shown) [Cpd 170, 2-[2-Methyl-4-p-tolyl-5,6,7,8-tetrahydro[1]benzothieno[2,3-b]pyridin-3-yl]-2-tert-butoxyacetic acid]: 0.05 µM, 0.0263 µM, 4429 and 116 µM.
For `Cc1ccc(-c2c(C(CC(C)C)C(=O)O)c(C)nc3sc4c(c23)CCCC4)cc1` (stereo not shown) [Cpd 136, 2-[2-Methyl-4-(p-tolyl)-5,6,7,8-tetrahydro[1]benzothieno[2,3-b]pyridin-3-yl]-4-methylpentanoic acid], the 50% inhibitory concentration (IC50) in data set [1] (setting [4]) is 4.34 µM. Also, in data set [2], the EC50 worked out at 1.02 µM and the SI is 85. In data set [3], this molecule yielded a 50% cytotoxic concentration (CC50) of 86.4 µM.
Regarding `C=C(C(=O)O)c1c(C)nc2sc3c(c2c1-c1ccc(C)cc1)CCC3` [Cpd 124, 2-[2-methyl-4-p-tolyl-6,7-dihydro-5H-cyclopenta[4,5]thieno[2,3-b]pyridin-3-yl]acrylic acid], in data set [1] (setting [4]), the IC50 is 41 µM. In addition, in data set [2], the concentration for a half-maximal effect (EC50) was above 117 µM. Moreover, the 50% cytotoxic concentration (CC50) in data set [3] came to 117 µM.
In the same order, the values of `CCCC(C(=O)O)c1c(C)nc2scc(C)c2c1-c1ccc(C)cc1` (stereo not shown) [Cpd 118, 2-(3,6-Dimethyl-4-p-tolylthieno[2,3-b]pyridin-5-yl)pentanoic acid] are 23.4 µM, above 50.2 µM and 50.2 µM.
As for `CCCC(C(=O)O)c1c(C)nc2sc3c(c2c1-c1ccc(C)cc1)CC(C)C3` (stereo not shown) [Cpd 127, 2-[2-methyl-6-methyl-4-p-tolyl-6,7-dihydro-5H-cyclopenta[4,5]thieno[2,3-b]pyridin-3-yl]pentanoic acid], in data set [1] (setting [4]), the IC50 came out at 2.85 µM. In addition, in data set [2], the EC50 was 0.79 µM and the SI is given as 105. The same molecule yielded a half-maximal cytotoxic concentration (CC50) in data set [3] of 82.9 µM.
For `COCC(C(=O)O)c1c(C)nc2sc3c(c2c1-c1ccc(C)cc1)CCC3` (stereo not shown) [Cpd 125, 2-[2-Methyl-4-(p-tolyl)-6,7-dihydro-5H-cyclopenta[4,5]thieno[2,3-b]pyridin-3-yl]-3-methoxypropanoic acid], the IC50 in data set [1] (setting [4]) came to 77 µM. Besides, in data set [2], the EC50 worked out at 66.5 µM and the SI is above 2. Also, the CC50 in data set [3] was above 125 µM.
In the case of `CCCC(C(=O)O)c1c(C)nc2sc3c(c2c1-c1ccc(CC)cc1)CCC3` (stereo not shown) [Cpd 117, 2-[2-Methyl-4-(4-ethylphenyl)-6,7-dihydro-5H-cyclopenta[4,5]thieno[2,3-b]pyridin-3-yl]pentanoic acid], the IC50 in data set [1] (setting [4]) amounted to 0.78 µM. Moreover, in data set [2], the EC50 was 0.53 µM and the SI stood at 107. The CC50 in data set [3] came to 54.3 µM.
On to `CCCC(C(=O)O)c1c(C)nc2sc3c(c2c1-c1ccc2c(c1)OCO2)CCCC3` (stereo not shown) [Cpd 146, 2-[2-Methyl-4-(benzo[d][1,3]dioxol-5-yl)-5,6,7,8-tetrahydro[1]benzothieno[2,3-b]pyridin-3-yl]pentanoic acid], for which the IC50 in data set [1] (setting [4]) stood at 4.76 µM. Also, in data set [2], the midpoint of the response, the EC50, lay at 2.98 µM and the SI worked out at 42. The CC50 in data set [3] was determined as 124 µM.
For the molecule `Cc1ccc(-c2c(CC(=O)O)c(C)nc3sc4c(c23)CCC4)cc1` [Cpd 101, [2-Methyl-4-p-tolyl-6,7-dihydro-5H-cyclopenta[4,5]thieno[2,3-b]pyridin-3-yl]acetic acid], the IC50 in data set [1] (setting [4]) was found to be 55.3 µM. In addition, in data set [2], the half-maximal effective concentration (EC50) is 64.1 µM and the SI is on record as above 2. Further, the cytotoxic concentration (CC50) in data set [3] was above 125 µM.
Take `CCCC(C(=O)O)c1c(C)nc2sc3c(c2c1-c1ccccc1Cl)CCCC3` (stereo not shown) [Cpd 137, 2-[2-Methyl-4-(2-chlorophenyl)-5,6,7,8-tetrahydro[1]benzothieno[2,3-b]pyridin-3-yl]pentanoic acid]: the IC50 in data set [1] (setting [4]) amounted to 51.9 µM. The EC50 in data set [2] was above 111 µM. The molecule also showed a half-maximal cytotoxic concentration (CC50) in data set [3] of 111 µM.
Turning to `CCCC(c1nnn[nH]1)c1c(C)nc2sc3c(c2c1-c1ccc(C)cc1)CCCC3` (stereo not shown) [Cpd 175, 2-Methyl-4-(p-tolyl)-3-[1-(1H-tetrazol-5-yl)butyl]-5,6,7,8-tetrahydro[1]benzothieno[2,3-b]pyridine], in data set [1] (setting [4]), the half-maximal inhibitory concentration (IC50) was below 1 µM. In data set [2], the concentration for a half-maximal effect (EC50) came out at 8.89 µM and the SI amounted to 9. Further, the CC50 in data set [3] came out at 79.2 µM.
For `Cc1ccc(-c2c(C(CCc3ccccc3)C(=O)O)c(C)nc3sc4c(c23)CCCC4)cc1` (stereo not shown) [Cpd 155, 2-[2-Methyl-4-(p-tolyl)-5,6,7,8-tetrahydro[1]benzothieno[2,3-b]pyridin-3-yl]-4-phenylbutanoic acid], the IC50 in data set [1] (setting [4]) turned out to be 81.9 µM. In data set [2], this molecule yielded an EC50 above 22 µM. This molecule also yielded a CC50 in data set [3] of 22 µM.
`CCCC(C(=O)O)c1c(C)nc2sc(CC)c(C)c2c1-c1ccc(C)cc1` (stereo not shown) [Cpd 111, 2-(2-Ethyl-3,6-dimethyl-4-p-tolylthieno[2,3-b]pyridin-5-yl)pentanoic acid]: in data set [2], the midpoint of the response, the EC50, lay at 1.28 µM and the SI turned out to be 43. The CC50 in data set [3] stood at 54.4 µM.
For `CCCC(C(=O)O)c1c(C)nc2sc3c(c2c1-c1ccc(C)cc1)CCCC3` (stereo not shown) [Cpd 113, 2-[2-Methyl-4-p-tolyl-5,6,7,8-tetrahydro[1]benzothieno[2,3-b]pyridin-3-yl]pentanoic acid], the IC50 in data set [1] (setting [4]) was determined as 0.75 µM. Moreover, in data set [2], the concentration for a half-maximal effect (EC50) turned out to be 0.44 µM and the SI came out at 183. This molecule registered a CC50 in data set [3] of 80.6 µM.
As for `CCCC(C(=O)O)c1c(C)nc2sc3c(c2c1-c1ccc(C)cc1)CCOC3` (stereo not shown) [Cpd 133, 2-[2-Methyl-4-(p-tolyl)-5,8-dihydro-6H-7-oxa-9-thia-1-aza-fluoren-3-yl]pentanoic acid], the IC50 in data set [1] (setting [4]) stood at 7.8 µM. Also, in data set [2], the half-maximal effective concentration (EC50) was 18 µM and the SI stood at 8. In data set [3], this molecule had a cytotoxic concentration (CC50) of 165 µM.
With `CCc1sc2nc(C)c(CC(=O)O)c(-c3ccc(C)cc3)c2c1C` [Cpd 105, (2-Ethyl-3,6-dimethyl-4-p-tolylthieno[2,3-b]pyridin-5-yl)acetic acid], in data set [1] (setting [4]), the IC50 was 64.3 µM. The same molecule had a concentration for a half-maximal effect (EC50) in data set [2] above 62.7 µM. In data set [3], this molecule registered a 50% cytotoxic concentration (CC50) of 62.7 µM.
On to `Cc1ccc(-c2c(C(Cc3ccccc3)C(=O)O)c(C)nc3sc4c(c23)CCC4)cc1` (stereo not shown) [Cpd 134, 2-[2-Methyl-4-(4-methylphenyl)-6,7-dihydro-5H-cyclopenta[4,5]thieno[2,3-b]pyridin-3-yl]-3-phenylpropanoic acid], for which the 50% inhibitory concentration (IC50) in data set [1] (setting [4]) was 84.1 µM. Also, the EC50 in data set [2] was above 114 µM. For the same molecule, the CC50 in data set [3] came to 114 µM.
